The target of the experiment is T1, chimeric human H3 receptor (Homo sapiens, UniProt Q9Y5N1).
T1 construct: rat Galpha-i2 (Gnai2, rat); made in house; host or cells: Sf9 insect cells (baculovirus); P2 membranes
The experiment is described as follows: Chimeric human H3 receptor screening GTP binding assay (inhibition of histamine-stimulated GTP-gamma35S binding, Example 8). The experiment is classed as biochemical. Put shortly:
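Sf9 membranes co-expressing chimeric human H3 receptor and heterotrimeric G-protein (35 μg protein) incubated 60 min at room temperature with 4 μM compound, 1 μM histamine and 125 pM GTP-gamma35S in pH 7.4 buffer with 10 μM GDP. Filter-bound radioactivity, nonspecific (10 μM GTP-gammaS) subtracted, reported as % inhibition of histamine signal.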

Setting [1] is: symbol ! in Ki, test compound 4 μM, 1 μM histamine, read-out: percent inhibition of agonist-induced GTP-gammaS binding to H3.
Setting [2] is: 1 h, assay of Example 8, symbol "!" in column headed Ki, read-out: percent inhibition of agonist-induced GTP-gammaS binding to H3.
[3] abbreviates: 1 h, assay described in Example 8, symbol "!" in column headed Ki, read-out: Ki ("!": percent inhibition of agonist-induced GTP-gammaS binding to H3).

In patent publication US20080051387A1, “TETRAHYDROPYRIDO[3,4-D]PYRIMIDINES AND RELATED ANALOGUES” (priority 2006, published 2008) one finds inhibition data, which are given here for 32 compounds.

Molecules are shown by their SMILES. Like-named read-outs stand apart in the source and are kept apart here.

The inhibition is how much of the control response was suppressed.

T1 sequence (Q9Y5N1 with tags, fused parts or gaps): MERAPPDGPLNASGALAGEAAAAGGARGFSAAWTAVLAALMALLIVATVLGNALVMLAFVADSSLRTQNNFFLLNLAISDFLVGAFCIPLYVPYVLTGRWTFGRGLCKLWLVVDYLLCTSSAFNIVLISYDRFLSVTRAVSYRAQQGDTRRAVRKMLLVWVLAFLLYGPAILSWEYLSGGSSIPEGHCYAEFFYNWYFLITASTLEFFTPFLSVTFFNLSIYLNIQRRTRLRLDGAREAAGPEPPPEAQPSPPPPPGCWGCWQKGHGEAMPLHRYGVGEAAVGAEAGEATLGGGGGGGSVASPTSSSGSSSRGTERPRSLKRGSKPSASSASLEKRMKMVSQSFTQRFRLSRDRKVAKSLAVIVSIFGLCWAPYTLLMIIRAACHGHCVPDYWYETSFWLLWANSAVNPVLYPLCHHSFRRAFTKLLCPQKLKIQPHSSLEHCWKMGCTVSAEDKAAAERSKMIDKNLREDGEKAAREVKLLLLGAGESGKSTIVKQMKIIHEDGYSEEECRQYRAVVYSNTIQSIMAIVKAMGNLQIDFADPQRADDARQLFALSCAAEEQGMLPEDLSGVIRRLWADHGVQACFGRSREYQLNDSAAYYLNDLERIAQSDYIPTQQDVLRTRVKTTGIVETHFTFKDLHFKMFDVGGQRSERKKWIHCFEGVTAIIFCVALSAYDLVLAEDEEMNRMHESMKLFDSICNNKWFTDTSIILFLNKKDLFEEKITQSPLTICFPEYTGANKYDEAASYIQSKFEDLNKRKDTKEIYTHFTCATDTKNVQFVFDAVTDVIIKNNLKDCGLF

`CC(C)c1ccc(C(=O)N2CCc3c(ncnc3N3CCN(C4CCC4)CC3)C2)cc1` [Compound 41, 4-(4-cyclobutylpiperazin-1-yl)-7-(4-isopropylbenzoyl)-5,6,7,8-tetrahydropyrido[3,4-d]pyrimidine]: under setting [1], the inhibition at 4 µM was ≥ 90%.
As for `CC(C)CC(=O)N1CCc2cnc(N3CCN(C4CCC4)CC3)nc2CC1` [Compound 208, 2-(4-cyclobutylpiperazin-1-yl)-7-(3-methylbutanoyl)-6,7,8,9-tetrahydro-5H-pyrimido[4,5-d]azepine], under setting [2], the inhibition at 4 µM was ≥ 90%.
Regarding `CCC(CC)CN1CCc2nc(N3CCN(C4CCC4)CC3)ncc2C1` [Compound 633, 2-(4-cyclobutylpiperazin-1-yl)-6-(2-ethylbutyl)-5,6,7,8-tetrahydropyrido[4,3-d]pyrimidine], under setting [1], the inhibition at 4 µM is ≥ 90%.
In the case of `COc1ccc(C(=O)N2CCc3cnc(N4CCN(C5CCC5)CC4)nc3CC2)cc1OC` [Compound 378, 2-(4-cyclobutylpiperazin-1-yl)-7-(3,4-dimethoxybenzoyl)-6,7,8,9-tetrahydro-5H-pyrimido[4,5-d]azepine], under setting [2], the inhibition at 4 µM is ≥ 90%.
With `CC(c1ccc(N2CCOCC2)nc1)N1CCc2c(ncnc2N2CCN(C3CCC3)CC2)C1` (centres unmarked) [Compound 111, 4-(4-cyclobutylpiperazin-1-yl)-7-[1-(6-morpholin-4-ylpyridin-3-yl)ethyl]-5,6,7,8-tetrahydropyrido[3,4-d]pyrimidine], under setting [1], the inhibition at 4 µM was ≥ 90%.
`CCC(C)C(C)N1CCc2c(ncnc2N2CCN(C3CCC3)CC2)C1` (centres unmarked) [Compound 122, 4-(4-cyclobutylpiperazin-1-yl)-7-(1,2-dimethylbutyl)-5,6,7,8-tetrahydropyrido[3,4-d]pyrimidine]: the inhibition at 4 µM under setting [1] is ≥ 90%.
With `O=C(c1cccc(C(F)(F)F)c1F)N1CCc2cnc(N3CCN(C4CCC4)CC3)nc2CC1` [Compound 399, 2-(4-cyclobutylpiperazin-1-yl)-7-[2-fluoro-3-(trifluoromethyl)benzoyl]-6,7,8,9-tetrahydro-5H-pyrimido[4,5-d]azepine], the inhibition at 4 µM under setting [3] was ≥ 90%.
Regarding `CCCCN1CCc2ncnc(N3CCN(C4CCC4)CC3)c2CC1` [Compound 163, 7-butyl-4-(4-cyclobutylpiperazin-1-yl)-6,7,8,9-tetrahydro-5H-pyrimido[4,5-d]azepine], the inhibition at 4 µM under setting [1] was ≥ 90%.
As for `CCCN1CCc2ncnc(N3CCN(C4CCC4)CC3)c2CC1` [Compound 162, 4-(4-cyclobutylpiperazin-1-yl)-7-propyl-6,7,8,9-tetrahydro-5H-pyrimido[4,5-d]azepine], the inhibition at 4 µM under setting [1] is ≥ 90%.
Turning to `O=C(c1cc(Cl)nc(Cl)c1)N1CCc2cnc(N3CCN(C4CCC4)CC3)nc2CC1` [Compound 491, 2-(4-cyclobutylpiperazin-1-yl)-7-(2,6-dichloroisonicotinoyl)-6,7,8,9-tetrahydro-5H-pyrimido[4,5-d]azepine], the inhibition at 4 µM under setting [3] is ≥ 90%.
`CCOc1ccc(C(=O)N2CCc3cnc(N4CCN(C5CCC5)CC4)nc3CC2)cc1OCC` [Compound 383, 2-(4-cyclobutylpiperazin-1-yl)-7-(3,4-diethoxybenzoyl)-6,7,8,9-tetrahydro-5H-pyrimido[4,5-d]azepine]: under setting [3], the inhibition at 4 µM was ≥ 90%.
As to `O=C(/C=C/c1ccccc1)N1CCc2c(ncnc2N2CCN(C3CCC3)CC2)C1` [Compound 62, 4-(4-cyclobutylpiperazin-1-yl)-7-[(2E)-3-phenylprop-2-enoyl]-5,6,7,8-tetrahydropyrido[3,4-d]pyrimidine], the inhibition at 4 µM under setting [1] is ≥ 90%.
On to `CC(C)C(C)N1CCc2c(ncnc2N2CCN(C3CCC3)CC2)C1` (centres unmarked) [Compound 121, 4-(4-cyclobutylpiperazin-1-yl)-7-(1,2-dimethylpropyl)-5,6,7,8-tetrahydropyrido[3,4-d]pyrimidine], for which, under setting [1], the inhibition at 4 µM was ≥ 90%.
`c1cc(N2CCCC2)ncc1CN1CCc2nc(N3CCN(C4CCC4)CC3)ncc2C1` [Compound 643, 2-(4-cyclobutylpiperazin-1-yl)-6-[(6-pyrrolidin-1-ylpyridin-3-yl)methyl]-5,6,7,8-tetrahydropyrido[4,3-d]pyrimidine]: the inhibition at 4 µM under setting [1] is ≥ 90%.
Regarding `Cc1cc(CN2CCc3ncnc(N4CCN(C5CCC5)CC4)c3CC2)n(C)n1` [Compound 156, 4-(4-cyclobutylpiperazin-1-yl)-7-[(1,3-dimethyl-1H-pyrazol-5-yl)methyl]-6,7,8,9-tetrahydro-5H-pyrimido[4,5-d]azepine], the inhibition at 4 µM under setting [1] is ≥ 90%.
Turning to `CCN1CCc2ncnc(N3CCN(C4CCC4)CC3)c2CC1` [Compound 160, 4-(4-cyclobutylpiperazin-1-yl)-7-ethyl-6,7,8,9-tetrahydro-5H-pyrimido[4,5-d]azepine], under setting [1], the inhibition at 4 µM was ≥ 90%.
Turning to `CCC(CC)(C(=O)N1CCc2cnc(N3CCN(C4CCC4)CC3)nc2CC1)c1ccccc1` [Compound 350, 2-(4-cyclobutylpiperazin-1-yl)-7-(2-ethyl-2-phenylbutanoyl)-6,7,8,9-tetrahydro-5H-pyrimido[4,5-d]azepine], the inhibition at 4 µM under setting [2] was ≥ 90%.
Regarding `c1cncc(CN2CCc3c(ncnc3N3CCN(C4CCC4)CC3)C2)c1` [Compound 75, 4-(4-cyclobutylpiperazin-1-yl)-7-(pyridin-3-ylmethyl)-5,6,7,8-tetrahydropyrido[3,4-d]pyrimidine], under setting [1], the inhibition at 4 µM is ≥ 90%.
For the compound `c1nc2c(c(N3CCN(C4CCC4)CC3)n1)CCN(CC1CCCCC1)C2` [Compound 2, 4-(4-Cyclobutylpiperazin-1-yl)-7-cyclohexylmethyl-5,6,7,8-tetrahydropyrido[3,4-d]pyrimidine], where the note is “test compound 4 μM, 1 μM histamine, read-out: percent inhibition of agonist-induced GTP-gammaS binding to H3”, the inhibition at 4 µM is ≥ 90%.
Turning to `Cc1ccc(C(=O)N2CCc3cnc(N4CCN(C5CCC5)CC4)nc3CC2)cc1Br` [Compound 400, 7-(3-bromo-4-methylbenzoyl)-2-(4-cyclobutylpiperazin-1-yl)-6,7,8,9-tetrahydro-5H-pyrimido[4,5-d]azepine], the inhibition at 4 µM under setting [3] was ≥ 90%.
For the compound `c1cc(N2CCCC2)ncc1CN1CCc2cnc(N3CCN(C4CCC4)CC3)nc2CC1` [Compound 263, 2-(4-cyclobutylpiperazin-1-yl)-7-[(6-pyrrolidin-1-ylpyridin-3-yl)methyl]-6,7,8,9-tetrahydro-5H-pyrimido[4,5-d]azepine], the inhibition at 4 µM under setting [2] is ≥ 90%.
With `CC(c1ccc2c(c1)OCCO2)N1CCc2c(ncnc2N2CCN(C3CCC3)CC2)C1` (centres unmarked) [Compound 129, 4-(4-cyclobutylpiperazin-1-yl)-7-[1-(2,3-dihydro-1,4-benzodioxin-6-yl)ethyl]-5,6,7,8-tetrahydropyrido[3,4-d]pyrimidine], the inhibition at 4 µM under setting [1] is ≥ 90%.
Consider `Cn1ccnc1CN1CCc2ncnc(N3CCN(C4CCC4)CC3)c2CC1` [Compound 150, 4-(4-cyclobutylpiperazin-1-yl)-7-[(1-methyl-1H-imidazol-2-yl)methyl]-6,7,8,9-tetrahydro-5H-pyrimido[4,5-d]azepine], for which, under setting [1], the inhibition at 4 µM is ≥ 90%.
As to `c1ccc(CN2CCc3c(ncnc3N3CCN(CCCN4CCCC4)CC3)C2)cc1` [Compound 19, 7-benzyl-4-[4-(3-pyrrolidin-1-ylpropyl)piperazin-1-yl]-5,6,7,8-tetrahydropyrido[3,4-d]pyrimidine], the inhibition at 4 µM under setting [1] was ≥ 90%.
Take `CCOc1ccsc1C(=O)N1CCc2cnc(N3CCN(C4CCC4)CC3)nc2CC1` [Compound 447, 2-(4-cyclobutylpiperazin-1-yl)-7-[(3-ethoxy-2-thienyl)carbonyl]-6,7,8,9-tetrahydro-5H-pyrimido[4,5-d]azepine]: the inhibition at 4 µM under setting [3] was ≥ 90%.
For the compound `Cc1ccccc1CC(=O)N1CCc2cnc(N3CCN(C4CCC4)CC3)nc2CC1` [Compound 305, 2-(4-cyclobutylpiperazin-1-yl)-7-[(2-methylphenyl)acetyl]-6,7,8,9-tetrahydro-5H-pyrimido[4,5-d]azepine], under setting [2], the inhibition at 4 µM is ≥ 90%.
Turning to `CCCCCCN1CCc2c(ncnc2N2CCN(C3CCC3)CC2)C1` [Compound 85, 4-(4-cyclobutylpiperazin-1-yl)-7-hexyl-5,6,7,8-tetrahydropyrido[3,4-d]pyrimidine], under setting [1], the inhibition at 4 µM was ≥ 90%.
In the case of `O=C(c1ccccn1)N1CCc2cnc(N3CCN(C4CCC4)CC3)nc2CC1` [Compound 199, 2-(4-cyclobutylpiperazin-1-yl)-7-(pyridin-2-ylcarbonyl)-6,7,8,9-tetrahydro-5H-pyrimido[4,5-d]azepine], the inhibition at 4 µM under setting [2] is ≥ 90%.
Take `Cc1ccc(Oc2ccccc2C(=O)N2CCc3cnc(N4CCN(C5CCC5)CC4)nc3CC2)cc1` [Compound 418, 2-(4-cyclobutylpiperazin-1-yl)-7-[2-(4-methylphenoxy)benzoyl]-6,7,8,9-tetrahydro-5H-pyrimido[4,5-d]azepine]: under setting [3], the inhibition at 4 µM was ≥ 90%.
For the compound `Cc1ccccc1OC(C)C(=O)N1CCc2cnc(N3CCN(C4CCC4)CC3)nc2CC1` (centres unmarked) [Compound 346, 2-(4-cyclobutylpiperazin-1-yl)-7-[2-(2-methylphenoxy)propanoyl]-6,7,8,9-tetrahydro-5H-pyrimido[4,5-d]azepine], under setting [2], the inhibition at 4 µM was ≥ 90%.
Consider `COc1ccc(/C=C/C(=O)N2CCc3cnc(N4CCN(C5CCC5)CC4)nc3CC2)cc1OC` [Compound 560, 2-(4-cyclobutylpiperazin-1-yl)-7-[(2E)-3-(3,4-dimethoxyphenyl)prop-2-enoyl]-6,7,8,9-tetrahydro-5H-pyrimido[4,5-d]azepine], for which the inhibition at 4 µM under setting [3] is ≥ 90%.
`O=C(Cc1ccccc1F)N1CCc2cnc(N3CCN(C4CCC4)CC3)nc2CC1` [Compound 517, 2-(4-cyclobutylpiperazin-1-yl)-7-[(2-fluorophenyl)acetyl]-6,7,8,9-tetrahydro-5H-pyrimido[4,5-d]azepine]: the inhibition at 4 µM under setting [3] is ≥ 90%.
